According to ChEMBL document CHEMBL1240489, “Discovery of N-{1-[3-(3-oxo-2,3-dihydrobenzo[1,4]oxazin-4-yl)propyl]piperidin-4-yl}-2-phenylacetamide (Lu AE51090): an allosteric muscarinic M1 receptor agonist with unprecedented selectivity and procognitive potential” (J Med Chem, 2010):

What was measured:
[1] = target: T1, Muscarinic acetylcholine receptor M1 (Homo sapiens, UniProt P11229)
T1 sequence (P11229 whole entry): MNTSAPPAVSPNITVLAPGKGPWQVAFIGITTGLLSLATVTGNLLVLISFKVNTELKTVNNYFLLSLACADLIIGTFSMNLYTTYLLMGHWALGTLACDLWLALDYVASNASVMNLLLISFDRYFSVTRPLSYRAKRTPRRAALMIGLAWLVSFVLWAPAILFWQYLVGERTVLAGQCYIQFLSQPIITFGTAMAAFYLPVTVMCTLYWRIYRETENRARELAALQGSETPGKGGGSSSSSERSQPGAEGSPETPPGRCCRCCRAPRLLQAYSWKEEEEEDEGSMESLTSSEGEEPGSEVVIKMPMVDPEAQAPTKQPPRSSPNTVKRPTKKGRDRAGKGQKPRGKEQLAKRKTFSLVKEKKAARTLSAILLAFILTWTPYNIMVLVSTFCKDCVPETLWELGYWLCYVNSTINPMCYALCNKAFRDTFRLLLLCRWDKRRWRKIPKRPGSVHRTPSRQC

[2] = target: T2, Muscarinic acetylcholine receptor M1 (Homo sapiens) (UniProt P11229); test: Agonist activity at human muscarinic M1 receptor expressed in CHO-K1 cells assessed as increase of acetylcholine-induced calcium flux by FLIPR assay relative to acetylcholine; assay type: functional, cell-based
T2 sequence (whole entry): T1 sequence (P11229 whole entry)

[3] = target: T3, Muscarinic acetylcholine receptor M4 (Homo sapiens) (UniProt P08173); test: Agonist activity at human muscarinic M4 receptor expressed in BHK-21 cells coexpressing Galpha16 subunit assessed as increase of acetylcholine-induced calcium flux by FLIPR assay relative to acetylcholine; assay type: functional, cell-based
T3 sequence (whole entry): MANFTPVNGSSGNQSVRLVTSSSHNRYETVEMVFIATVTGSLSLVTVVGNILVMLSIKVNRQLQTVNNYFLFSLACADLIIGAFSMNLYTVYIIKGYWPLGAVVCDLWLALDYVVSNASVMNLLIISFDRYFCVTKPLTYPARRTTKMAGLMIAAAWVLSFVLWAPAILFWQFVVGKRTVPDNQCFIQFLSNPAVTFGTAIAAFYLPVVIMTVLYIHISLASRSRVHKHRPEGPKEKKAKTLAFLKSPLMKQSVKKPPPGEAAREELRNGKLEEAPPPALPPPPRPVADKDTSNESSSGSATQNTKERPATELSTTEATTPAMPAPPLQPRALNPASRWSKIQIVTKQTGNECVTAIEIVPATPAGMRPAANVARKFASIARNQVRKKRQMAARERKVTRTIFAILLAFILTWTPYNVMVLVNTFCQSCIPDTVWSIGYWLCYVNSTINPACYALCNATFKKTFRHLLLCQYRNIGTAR

[4] = target: T4, Muscarinic acetylcholine receptor M3 (Homo sapiens, UniProt P20309); test: Agonist activity at human muscarinic M3 receptor expressed in BHK-21 cells assessed as increase of acetylcholine-induced calcium flux at 10 uM by FLIPR assay relative to acetylcholine; assay type: functional, cell-based
Target sequence in this assay (P20309 whole entry, looked up): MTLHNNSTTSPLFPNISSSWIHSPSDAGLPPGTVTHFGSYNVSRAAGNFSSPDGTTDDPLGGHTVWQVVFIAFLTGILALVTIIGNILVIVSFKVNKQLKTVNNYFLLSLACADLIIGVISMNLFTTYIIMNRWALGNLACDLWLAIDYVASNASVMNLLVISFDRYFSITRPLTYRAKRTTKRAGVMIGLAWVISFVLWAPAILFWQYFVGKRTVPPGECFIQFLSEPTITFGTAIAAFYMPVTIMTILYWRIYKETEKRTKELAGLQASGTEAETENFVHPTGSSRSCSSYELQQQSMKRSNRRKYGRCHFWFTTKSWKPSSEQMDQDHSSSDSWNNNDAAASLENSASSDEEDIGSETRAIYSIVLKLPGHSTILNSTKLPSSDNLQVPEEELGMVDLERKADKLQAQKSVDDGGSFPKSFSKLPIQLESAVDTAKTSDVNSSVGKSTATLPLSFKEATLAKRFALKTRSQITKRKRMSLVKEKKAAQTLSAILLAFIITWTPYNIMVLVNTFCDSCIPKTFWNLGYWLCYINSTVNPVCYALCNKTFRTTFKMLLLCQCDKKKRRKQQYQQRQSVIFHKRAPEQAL

[5] = tested on: Muscarinic acetylcholine receptor M1 (Homo sapiens), P11229 [Y381A]; test: Agonist activity at human muscarinic M1 receptor Y381A mutant expressed in CHO-K1 cells assessed as increase of acetylcholine-induced calcium flux by FLIPR assay relative to acetylcholine; assay type: functional, cell-based
[6] = target: T5, Muscarinic acetylcholine receptor M5 (Homo sapiens, UniProt P08912); test: biochemical
T5 sequence (P08912 whole entry): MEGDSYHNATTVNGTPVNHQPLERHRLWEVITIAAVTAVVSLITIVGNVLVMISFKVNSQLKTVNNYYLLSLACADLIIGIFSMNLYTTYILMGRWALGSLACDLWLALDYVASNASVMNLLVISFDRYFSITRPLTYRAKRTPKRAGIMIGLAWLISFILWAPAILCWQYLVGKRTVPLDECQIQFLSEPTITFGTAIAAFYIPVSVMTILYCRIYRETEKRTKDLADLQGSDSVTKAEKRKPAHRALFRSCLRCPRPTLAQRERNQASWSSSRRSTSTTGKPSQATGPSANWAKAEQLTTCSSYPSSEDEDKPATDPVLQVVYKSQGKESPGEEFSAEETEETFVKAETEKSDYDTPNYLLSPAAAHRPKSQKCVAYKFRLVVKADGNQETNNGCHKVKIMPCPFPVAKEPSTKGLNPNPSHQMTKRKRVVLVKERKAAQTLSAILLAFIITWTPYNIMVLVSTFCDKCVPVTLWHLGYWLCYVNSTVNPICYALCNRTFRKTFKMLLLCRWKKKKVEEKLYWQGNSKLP
Description: Displacement of [3H]-4-DAMP from human muscarinic M5 receptor expressed in BHK-21 cells

[7] = target: T4, Muscarinic acetylcholine receptor M3; test: Displacement of [3H]-4-DAMP from human muscarinic M3 receptor expressed in BHK-21 cells; assay type: cell-based
Target sequence in this assay (P20309 whole entry): as the sequence (P20309 whole entry, looked up) above

[8] = target: T6, Muscarinic acetylcholine receptor M5 (Homo sapiens) (UniProt P08912); test: Agonist activity at human muscarinic M5 receptor expressed in BHK-21 cells assessed as increase of acetylcholine-induced calcium flux by FLIPR assay relative to acetylcholine; assay type: functional, cell-based
T6 sequence (whole entry): T5 sequence (P08912 whole entry)

[9] = target: T7, Muscarinic acetylcholine receptor M2 (Homo sapiens) (UniProt P08172); test: Agonist activity at human muscarinic M2 receptor expressed in CHO-K1 cells coexpressing Galpha16 subunit assessed as increase of acetylcholine-induced calcium flux at 10 uM by FLIPR assay relative to acetylcholine; assay type: functional, cell-based
T7 sequence (whole entry): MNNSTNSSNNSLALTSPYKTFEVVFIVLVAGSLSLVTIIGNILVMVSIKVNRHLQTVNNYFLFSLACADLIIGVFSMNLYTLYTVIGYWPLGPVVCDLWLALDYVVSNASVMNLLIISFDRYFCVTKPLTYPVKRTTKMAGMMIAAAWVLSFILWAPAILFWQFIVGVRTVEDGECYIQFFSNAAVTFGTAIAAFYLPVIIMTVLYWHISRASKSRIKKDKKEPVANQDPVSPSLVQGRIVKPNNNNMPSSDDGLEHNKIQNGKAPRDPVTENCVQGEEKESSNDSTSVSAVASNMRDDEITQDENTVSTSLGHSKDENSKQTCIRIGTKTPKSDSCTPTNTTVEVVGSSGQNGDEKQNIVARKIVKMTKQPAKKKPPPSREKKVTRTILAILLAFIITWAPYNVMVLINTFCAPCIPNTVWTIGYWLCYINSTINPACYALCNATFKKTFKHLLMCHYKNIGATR

[10] = target: Muscarinic acetylcholine receptor M1 (Homo sapiens, UniProt P11229, Y381A)
[11] = target: T8, Muscarinic acetylcholine receptor M2 (Homo sapiens, UniProt P08172); test: Displacement of [3H]-AFDX-384 from human muscarinic M2 receptor expressed in CHO-K1 cells; assay type: cell-based
T8 sequence (P08172 whole entry): T7 sequence (whole entry)

[12] = target: T5, Muscarinic acetylcholine receptor M5; test: Agonist activity at human muscarinic M5 receptor expressed in BHK-21 cells assessed as increase of acetylcholine-induced calcium flux by FLIPR assay; assay type: functional, cell-based
[13] = target: T2, Muscarinic acetylcholine receptor M1 (Homo sapiens); test: Agonist activity at human muscarinic M1 receptor expressed in CHO-K1 cells assessed as increase of acetylcholine-induced calcium flux at 10 uM by FLIPR assay relative to acetylcholine; assay type: functional, cell-based
[14] = target: T6, Muscarinic acetylcholine receptor M5 (Homo sapiens); test: Agonist activity at human muscarinic M5 receptor expressed in BHK-21 cells assessed as increase of acetylcholine-induced calcium flux at 10 uM by FLIPR assay relative to acetylcholine; assay type: functional, cell-based
[15] = target: T3, Muscarinic acetylcholine receptor M4 (Homo sapiens); test: Agonist activity at human muscarinic M4 receptor expressed in BHK-21 cells coexpressing Galpha16 subunit assessed as increase of acetylcholine-induced calcium flux at 10 uM by FLIPR assay relative to acetylcholine; assay type: functional, cell-based
[16] = target: 5-hydroxytryptamine receptor 2C (Homo sapiens, UniProt P28335); test: Binding affinity to human 5HT2C receptor agonist site by radioligand displacement assay
[17] = target: Alpha-1D adrenergic receptor (Homo sapiens, UniProt P25100); test: Binding affinity to human adrenergic Alpha-1D receptor by radioligand displacement assay
[18] = target: Alpha-1A adrenergic receptor (Homo sapiens, UniProt P35348); test: Binding affinity to human adrenergic alpha1A receptor by radioligand displacement assay
[19] = target: Alpha-1B adrenergic receptor (Homo sapiens, UniProt P35368); test: Binding affinity to human adrenergic Alpha-1B receptor by radioligand displacement assay
Sequence of Alpha-1B adrenergic receptor (P35368 whole entry): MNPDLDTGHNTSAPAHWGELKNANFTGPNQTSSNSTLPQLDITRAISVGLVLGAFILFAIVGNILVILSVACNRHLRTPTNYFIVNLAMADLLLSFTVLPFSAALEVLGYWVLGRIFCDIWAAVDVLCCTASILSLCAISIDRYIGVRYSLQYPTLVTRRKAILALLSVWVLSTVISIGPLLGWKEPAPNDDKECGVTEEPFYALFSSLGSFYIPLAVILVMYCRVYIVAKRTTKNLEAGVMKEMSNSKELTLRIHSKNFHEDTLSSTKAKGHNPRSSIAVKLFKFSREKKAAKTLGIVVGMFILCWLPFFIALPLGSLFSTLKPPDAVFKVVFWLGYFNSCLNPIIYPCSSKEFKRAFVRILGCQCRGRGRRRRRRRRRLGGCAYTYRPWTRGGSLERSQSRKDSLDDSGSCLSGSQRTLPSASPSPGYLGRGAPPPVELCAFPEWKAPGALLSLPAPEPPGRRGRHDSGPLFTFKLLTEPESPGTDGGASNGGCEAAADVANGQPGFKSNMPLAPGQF

Sequence of Muscarinic acetylcholine receptor M1 (Homo sapiens, UniProt P11229, Y381A) (P11229 whole entry Y381A): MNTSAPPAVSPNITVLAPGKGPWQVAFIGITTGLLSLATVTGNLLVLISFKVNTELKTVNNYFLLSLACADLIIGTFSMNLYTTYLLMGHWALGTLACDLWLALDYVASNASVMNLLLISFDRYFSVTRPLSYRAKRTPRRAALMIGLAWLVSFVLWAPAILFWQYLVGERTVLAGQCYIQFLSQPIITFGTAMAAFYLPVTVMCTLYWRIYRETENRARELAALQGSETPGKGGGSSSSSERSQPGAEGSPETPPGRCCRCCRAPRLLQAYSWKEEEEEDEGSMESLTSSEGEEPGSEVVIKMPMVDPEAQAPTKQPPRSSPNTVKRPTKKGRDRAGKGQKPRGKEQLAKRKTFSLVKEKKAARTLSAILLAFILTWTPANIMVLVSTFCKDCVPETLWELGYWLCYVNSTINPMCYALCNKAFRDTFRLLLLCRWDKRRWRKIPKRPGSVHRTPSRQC
Sequence of Muscarinic acetylcholine receptor M1 (Homo sapiens), P11229 [Y381A] (P11229 whole entry Y381A): as above
Sequence of Alpha-1D adrenergic receptor (P25100 whole entry): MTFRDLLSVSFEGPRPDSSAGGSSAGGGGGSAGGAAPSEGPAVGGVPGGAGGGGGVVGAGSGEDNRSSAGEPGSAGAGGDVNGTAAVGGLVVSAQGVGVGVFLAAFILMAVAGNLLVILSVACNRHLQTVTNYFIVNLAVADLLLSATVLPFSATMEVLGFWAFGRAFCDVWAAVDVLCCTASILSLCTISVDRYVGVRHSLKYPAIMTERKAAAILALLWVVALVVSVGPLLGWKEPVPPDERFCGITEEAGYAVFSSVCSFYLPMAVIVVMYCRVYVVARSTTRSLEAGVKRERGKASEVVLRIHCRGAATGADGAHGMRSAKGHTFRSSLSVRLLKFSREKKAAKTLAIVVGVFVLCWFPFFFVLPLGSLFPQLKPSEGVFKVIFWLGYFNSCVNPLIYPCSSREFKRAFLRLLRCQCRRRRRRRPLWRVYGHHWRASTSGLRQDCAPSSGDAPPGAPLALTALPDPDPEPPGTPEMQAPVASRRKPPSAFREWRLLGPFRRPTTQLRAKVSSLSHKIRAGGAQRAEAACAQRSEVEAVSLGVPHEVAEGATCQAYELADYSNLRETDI
Sequence of 5-hydroxytryptamine receptor 2C (P28335 whole entry): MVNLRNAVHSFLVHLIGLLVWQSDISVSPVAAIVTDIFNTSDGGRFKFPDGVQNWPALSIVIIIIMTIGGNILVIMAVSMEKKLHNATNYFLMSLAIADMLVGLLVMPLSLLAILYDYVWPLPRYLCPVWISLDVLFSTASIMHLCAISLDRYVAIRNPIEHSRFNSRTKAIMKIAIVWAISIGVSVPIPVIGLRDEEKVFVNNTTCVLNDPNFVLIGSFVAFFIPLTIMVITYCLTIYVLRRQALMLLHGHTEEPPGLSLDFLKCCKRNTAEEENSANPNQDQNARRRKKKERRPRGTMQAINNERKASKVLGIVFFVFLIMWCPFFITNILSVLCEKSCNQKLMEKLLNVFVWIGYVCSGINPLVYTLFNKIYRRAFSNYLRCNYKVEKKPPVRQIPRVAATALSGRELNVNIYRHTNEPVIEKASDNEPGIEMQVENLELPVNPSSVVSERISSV
Sequence of Alpha-1A adrenergic receptor (P35348 whole entry): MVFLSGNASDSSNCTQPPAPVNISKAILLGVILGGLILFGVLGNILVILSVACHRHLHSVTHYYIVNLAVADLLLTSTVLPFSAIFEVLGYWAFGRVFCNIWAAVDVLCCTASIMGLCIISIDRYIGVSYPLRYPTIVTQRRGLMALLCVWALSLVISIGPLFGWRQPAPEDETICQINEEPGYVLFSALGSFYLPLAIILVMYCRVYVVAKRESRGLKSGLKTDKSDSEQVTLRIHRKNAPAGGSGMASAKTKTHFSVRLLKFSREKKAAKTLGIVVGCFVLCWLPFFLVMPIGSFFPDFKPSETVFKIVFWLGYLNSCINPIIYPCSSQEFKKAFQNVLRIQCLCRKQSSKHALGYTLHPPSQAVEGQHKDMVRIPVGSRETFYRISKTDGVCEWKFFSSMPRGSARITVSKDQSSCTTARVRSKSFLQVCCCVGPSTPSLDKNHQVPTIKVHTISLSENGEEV

Row | SMILES | EC50 [1] [nM] | Emax [2] [%] | also measured
1 | CCC(=O)NC1CCN(CCCN2C(=O)CCc3c(F)cccc32)CC1 | 19 | 90 | 
2 | Clc1ccc2c(c1)N=C(N1CCNCC1)c1ccccc1N2 [N-DESMETHYLCLOZAPINE] | 18 | 75 | Emax [3]: 12%; Emax [4]: 10%; Emax [5]: 72%; Ki [6]: 51 nM; Ki [7]: 90 nM; Emax [8]: 34%; Emax [9]: 3%; EC50 [10]: 140 nM; Ki [11]: 250 nM; EC50 [12]: 170 nM
3 | CCC(=O)NC1CCN(CCCN2C(=O)COc3cc(F)c(F)cc32)CC1 | 10 | 88 | 
4 | CC(C)C(=O)NC1CCN(CCCN2C(=O)COc3ccccc32)CC1 | 46 | 72 | 
5 | O=C(Cc1ccccc1)NC1CCN(CCCN2C(=O)CCc3cccc(F)c32)CC1 | 290 | 75 | 
6 | O=C(Cc1ccccc1)NC1CCN(CCCN2C(=O)CCc3c(F)cccc32)CC1 | 150 | 77 | 
7 | O=C(NC1CCN(CCCN2C(=O)COc3ccccc32)CC1)C1CC1 | 110 | 74 | 
8 | O=C(Cc1ccccc1)NC1CCN(CCCN2C(=O)CSc3ccccc32)CC1 | 100 | 79 | 
9 | CCC(=O)NC1CCN(CCCN2C(=O)CCc3cc(F)c(F)cc32)CC1 | 20 | 87 | 
10 | O=C(NC1CCN(CCCN2C(=O)COc3ccccc32)CC1)C1CCCCC1 |  |  | Emax [13]: 3%
11 | COc1ccc2c(c1)N(CCCN1CCC(NC(=O)Cc3ccccc3)CC1)C(=O)CC2 | 120 | 83 | 
12 | COc1ccc2c(c1)CCC(=O)N2CCCN1CCC(NC(=O)Cc2ccccc2)CC1 | 560 | 84 | 
13 | O=C(Cc1ccccc1)NC1CCN(CCCn2c(=O)oc3ccccc32)CC1 | 1100 | 70 | 
14 | COc1cccc(CC(=O)NC2CCN(CCCN3C(=O)COc4ccccc43)CC2)c1 | 130 | 86 | Emax [4]: 0%; Emax [14]: 6%; Emax [9]: 0%; Emax [15]: 3%
15 | O=C(NC1CCN(CCCN2C(=O)COc3ccccc32)CC1)C1CCC1 | 160 | 37 | 
16 | O=C(Cc1ccccc1)NC1CCN(CCCN2C(=O)CCc3cc(F)c(F)cc32)CC1 | 15 | 89 | 

Row | SMILES | EC50 [1] [nM] | Emax [2] [%] | also measured
17 | O=C(NC1CCN(CCCN2C(=O)COc3ccccc32)CC1)c1ccccc1 |  |  | Emax [13]: 8%
18 | CC(C)CC(=O)NC1CCN(CCCN2C(=O)COc3ccccc32)CC1 |  |  | Emax [13]: 21%
19 | CC(=O)NC1CCN(CCCN2C(=O)COc3ccccc32)CC1 | 180 | 74 | 
20 | O=C(NC1CCN(CCCN2C(=O)COc3ccccc32)CC1)C1CCCC1 | 350 | 41 | 
21 | CC(=O)NC1CCN(CCCN2C(=O)CCc3cc(F)c(F)cc32)CC1 | 86 | 76 | 
22 | CCC(=O)NC1CCN(CCCN2C(=O)CCc3ccc(F)cc32)CC1 | 20 | 83 | 
23 | O=C(Cc1ccccc1)NC1CCN(CCCN2C(=O)CCc3cc(F)ccc32)CC1 | 49 | 79 | 
24 | CCC(=O)NC1CCN(CCCN2C(=O)CCc3cc(F)ccc32)CC1 | 9 | 83 | 
25 | O=C(Cc1ccccc1)NC1CCN(CCCN2C(=O)CCc3ccccc32)CC1 | 48 | 89 | 
26 | CN(C(=O)Cc1ccccc1)C1CCN(CCCN2C(=O)COc3ccccc32)CC1 | 910 | 67 | 
27 | O=C(CCc1ccccc1)NC1CCN(CCCN2C(=O)COc3ccccc32)CC1 | 970 | 60 | 
28 | O=C(Cc1ccccc1)NC1CCN(CCCN2C(=O)CCc3ccc(F)cc32)CC1 | 51 | 86 | 
29 | CCC(=O)NC1CCN(CCCN2C(=O)COc3ccccc32)CC1 | 27 | 78 | 
30 | Cc1ccccc1CN1CCC(N2CCC(n3c(=O)[nH]c4ccccc43)CC2)CC1 |  | 86 | Ki [16]: 85 nM; Ki [17]: 290 nM; Emax [4]: 1%; Emax [14]: 5%; Ki [6]: 940 nM; Ki [18]: 11 nM; Ki [11]: 320 nM; Ki [19]: 19 nM; Emax [15]: 38%
31 | CCC(=O)NC1CCN(CCCN2C(=O)CCc3cccc(F)c32)CC1 | 310 | 78 | 
